For experiment [1], the target named is T1, FgTGRsec (TrxR activity) (Fasciola gigantica, UniProt A0A0K1NYF8). In words: DTNB-based TrxR activity inhibition assay of FgTGRsec. The experiment is classed as biochemical. Conditions: DTNB reduction, 20 min incubation, triplicate, read-out: IC50 of rFgTGRsec. The method, then: The TrxR activity of FgTGR and FgTGRsec was determined by using the 5, 5′-diothiobis (2-nitrobenzoic acid, DTNB, 4 mg/mL) (Sigma, St. Louis, MO, USA) reduction assay at room temperature. The reaction mixture was composed of 180 μL working buffer (0.1 mM potassium phosphate, pH 7.0, 10 mMEDTA, 100 μM β-nicotinamide adenine dinucleotide phosphate (NADPH) (Sigma)), 4 μL assay buffer (0.1 mM potassium phosphate, pH 7.0, 10 mM EDTA), 6 μL DTNB, and 10 μL rFgTGR or rFgTGRsec (600 μg/mL). The reaction was initiated by the adding DTNB at concentrations ranging from 100 μmol/L to 1000 μmol/L. An increase in absorbance at 412 nm was observed within the first 2 min. One unit of thioredoxin reductase (TrxR) activity was defined as the amount of enzyme that catalyzes the production of 1 μmol of 2-nitro-5-thiobenoic acid (TNB) per minute at room temperature. The reaction mixture without FgTGR or FgTGRsec was used as a negative control, and the processes of the negative experiments were the same as the above description.
To evaluate the effect of furoxan derivatives on FgTGRsec, the activity of TrxR was measured. The furoxan derivatives were soluble in dimethyl sulfoxide (DMSO), and seven concentrations of each derivative were prepared based on their distinct structures. For the DTNB-based TrxR activity inhibition assay, reaction mixtures were prepared as described in the TrxR activity assay protocol. The components were incubated for 20 min, after which the reaction was initiated by adding DTNB. The increase in absorbance at 412 nm was measured to evaluate the inhibitory effect of each furoxan derivative. The half-maximal inhibitory concentration (IC50) values of the compounds were calculated by GraphPad Prism v6.0c software. The reaction without FgTGRsec and furoxan derivatives served as the blank control, while the reaction with furoxan was the positive control. All assays were performed in triplicate.

A further experiment concerns SjTGRsec (TrxR activity). Also on record: method as in PMID 33902686. Conditions: S. japonicum, result in words; cited from earlier work.
Experiment [2] relates to Taenia crassiceps cysticerci. More on the design: method as in PMID 20431894. The following applies: cited from earlier work.
The next experiment relates to FgTGRsec (GR activity). Also on record: method as in PMID 29526505. The following applies: cited from earlier work.
The target in experiment [3] is T1, FgTGRsec (TrxR activity). More on the design: method as in PMID 29526505. The following applies: cited from earlier work.

Where two headings read alike, the source gives them in different places.

T1 sequence (A0A0K1NYF8 entry or part of it): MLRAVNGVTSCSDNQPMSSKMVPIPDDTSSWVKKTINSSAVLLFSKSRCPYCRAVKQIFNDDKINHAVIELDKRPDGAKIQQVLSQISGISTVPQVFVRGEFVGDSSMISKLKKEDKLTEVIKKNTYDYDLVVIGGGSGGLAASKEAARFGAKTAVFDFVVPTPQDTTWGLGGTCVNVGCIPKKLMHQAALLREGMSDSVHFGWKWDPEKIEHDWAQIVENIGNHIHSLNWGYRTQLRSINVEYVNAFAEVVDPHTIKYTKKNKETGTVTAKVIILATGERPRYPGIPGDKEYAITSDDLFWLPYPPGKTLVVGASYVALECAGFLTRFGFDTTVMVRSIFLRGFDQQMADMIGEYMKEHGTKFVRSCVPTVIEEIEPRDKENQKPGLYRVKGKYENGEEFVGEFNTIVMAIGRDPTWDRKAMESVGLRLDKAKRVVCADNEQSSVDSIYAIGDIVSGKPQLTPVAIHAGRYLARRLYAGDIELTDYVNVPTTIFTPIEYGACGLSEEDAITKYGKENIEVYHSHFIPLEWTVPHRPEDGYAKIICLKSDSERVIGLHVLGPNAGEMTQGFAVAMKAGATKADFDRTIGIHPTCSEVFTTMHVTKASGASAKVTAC

One may read the IC50 as the concentration at which inhibition is half-maximal. For `[O-][n+]1onc(-c2ccc(C(F)(F)F)cc2)c1CN1CCN(c2ccccc2F)CC1` [CH-33], on FgTGRsec (TrxR activity) [1], the IC50 came to 18.5 ± 2.57 µM.

Regarding `[O-][n+]1onc(-c2cccc(Cl)c2)c1CO` [ZWJ-19], the IC50 at FgTGRsec (TrxR activity) [1] is 3.82 ± 0.33 µM.

In the case of `[O-][n+]1onc(-c2ccncc2)c1CO` [LGM-2], the IC50 at FgTGRsec (TrxR activity) [1] is 15.2 ± 0.8 µM.

Consider `[O-][n+]1onc(-c2ccc(C(F)(F)F)nc2)c1CO` [LGM-35], for which the “inhibition of TrxR activity” value in the experiment with SjTGRsec (TrxR activity) is listed as “most significant inhibition”. The IC50 at FgTGRsec (TrxR activity) [1] came out at 4.5 ± 0.35 µM.

Consider `CC(=O)OC[C@H]1O[C@@H]([S-])[C@H](OC(C)=O)[C@@H](OC(C)=O)[C@@H]1OC(C)=O.CCP(CC)CC.[Au+]` [AF, auranofin], for which the IC50 in experiment [2] (Taenia crassiceps cysticerci cultured with AF for 12 h) was 3.8 µM; in the experiment with FgTGRsec (GR activity), 8.3 µM; on FgTGRsec (TrxR activity) [3], 870 nM. In experiment [2] (after culturing with AF for 12 h), the survival of cysticerci entry is given as “all dead”.

For `[O-][n+]1onc(-c2cccnc2)c1CO` [LGM-1], on FgTGRsec (TrxR activity) [1], the IC50 came out at 6.93 ± 1.74 µM.

The record behind these values is article PMC12655518, “Screening Novel Furoxan Derivatives as Potential Inhibitors Targeting Thioredoxin Glutathione Reductase of Fasciola gigantica” (Pharmaceuticals, 2025).
